Test results published in patent publication US11963966B2, “Compositions and methods for treating ovarian tumors” (Dana-Farber Cancer Institute, Inc., priority 2017, dated 2024).

How the values were obtained:
[1] = Adverse effects in JSI-124 treated PDX mice; format: in vivo; conditions: IP JSI-124 treated PDX mice
Excerpt: (§1) A frequently used treatment modality for advanced ovarian cancer is the intraperitoneal administration of chemotherapy, such as cisplatin, which has local effects, but is also systemically reabsorbed to treat potential metastatic disease. […] Tumor growth was compared following IP JSI-124 treatment v. vehicle.

[2] = system: STAT3 activity in Heya8 cells; assay: STAT3-dependent luciferase assay after oncostatin M (OSM) stimulation; format: cell-based; conditions: Heya8 cells pre-treated 1 hour vs DMSO, then OSM stimulation
[3] = system: PDX model DF20 malignant ascites; assay: PDX model DF20, IP injected cancer cells (malignant ascites), IP JSI-124 vs vehicle, BLI; format: in vivo, mice
Protocol: (§2) FIG. 7A-FIG. 7E are a series of graphs and images that depict the impact of JAK/STAT-inhibition on spheroid formation in vivo and anti-tumor activity. […] Each of these were performed following intraperitoneal (IP) or subcutaneous (SC) injection of cancer cells followed by IP therapy with JSI-124 vs. vehicle. Each group includes 5 mice. The inverted triangle indicates the time=0 of cancer cell injection. […] Mice were injected IP with tumor cells and one week later started treatment for a total 14 days. Each group includes 5 mice. Y-axis indicates log of bioluminescence imaging (BLI) signal (log total flux in p/s). Values are given as mean of log BLI signal, error bars indicate standard deviation from the mean. ***p<0.0001 (two-sided t test comparing mean±STDEV at Day 15 of treatment). […] Each group includes 5 mice. Y-axis indicates log BLI signal (log total flux in p/s). Values are given as mean of log BLI signal, error bars indicate standard deviation from the mean. ***p<0.0001 (two-sided t test comparing mean±STDEV at Day 15 of treatment). […] Mice were injected SC with tumor cells and one week later started treatment for a total 14 days. Each group includes 5 mice. Y-axis indicates log BLI signal (log total flux in p/s). Values are given as mean of log BLI signal, error bars indicate standard deviation from the mean. ***p<0.0001 (two-sided t test comparing mean±STDEV at Day 15 of treatment). […] Each group includes 5 mice. Y-axis indicates log BLI signal (log total flux in p/s). Values are given as mean of log BLI signal, error bars indicate standard deviation from the mean. ***p<0.0001 (two-sided t test comparing mean±STDEV at Day 15 of treatment).

PDX model DF20 SC tumors = assay: PDX model DF20, SC injected cancer cells, IP JSI-124 vs vehicle, BLI; format: in vivo, mice
Protocol: as §2, §1

[4] = ascites allowed to form 3 weeks, then IP treatment 14 days
[5] = tumor cells IP, 7 days growth, then 14 days IP therapy
[6] = SC tumors established 3 weeks, then IP treatment 14 days
[7] = SC tumors established 7 days, then 14 days IP therapy

CC(C)(O)/C=C/C(=O)[C@](C)(O)[C@H]1[C@@H](O)C[C@@]2(C)[C@@H]3CC=C4[C@H](C=C(O)C(=O)C4(C)C)[C@]3(C)C(=O)C[C@]12C [JSI-124, cucurbitacin I]
Adverse effect (body weight, ascites/edema) [1]: increased weight due to increased non-malignant ascites | STAT3-dependent luciferase activity [2]: significant reduction in STAT-dependent expression | BLI signal of established malignant ascites [3, 4]: significant reduction in BLI signal of malignant ascites | mean day 15 log BLI signal±standard deviation [3, 4]: 1.29×10^9±6×10^8 p/s | Development of malignant ascites [3, 5]: completely abrogated development of malignant ascites | mean day 15 log BLI signal±standard deviation [3, 5]: 1.47×10^8±6.5×10^7 p/s | Established SC tumors (PDX model DF20 SC tumors; [6]): significant and near complete elimination of SC tumors | mean day 15 log BLI signal±standard deviation (PDX model DF20 SC tumors; [6]): 8.52×10^8±3.1×10^8 p/s | Growth of SC tumors (PDX model DF20 SC tumors; [7]): significantly inhibit development of tumors growth of SC tumors | mean day 15 log BLI signal±standard deviation (PDX model DF20 SC tumors; [7]): 5.55×10^8±2.2×10^8 p/s
